The source of these data is US20250057928A1, “VACCINE COMPOSITION FOR INDUCING ANTI-IL-23 ANTIBODY” (OSAKA UNIVERSITY, priority 2021, published 2025).

Assay [1] has as its system recombinant human IL-23 protein (rhIL-23). The experiment in a line: Binding of mouse antiserum to rhIL-23, ELISA. The conditions noted are these: antiserum of BALB/c mice, 1 mg/body 3 times, no adjuvant; 6 weeks. On the procedure: AJP001 conjugated peptide (SEQ ID NOs: 6-37) was dissolved in physiological saline, mixed with an equal amount of 2% Alhydrogel (invivogen), and this was intradermally administered to BALB/c mice (female, 6-week-old, N=5-6) at 0.5 mg/body 3 times at two-week intervals. Blood was collected before administration and at the time point of 6 weeks after initial administration, and the antibody titer (GMT) to each epitope sequence and binding ability to recombinant human IL-23 protein (rhIL-23) (Peprotech) were measured by the ELISA method (same method as in Example 1). The binding to rhIL-23 was evaluated by a binding ratio to normal serum by calculating the ratio of the absorbance of a well added with normal mouse serum to the absorbance of a well added with antiserum derived from a mouse administered with each AJP001 conjugated peptide (SEQ ID NOs: 6-37). In addition, the neutralization activity of mouse antiserum was evaluated using an action on IL-17 production in rhIL-23 stimulated mouse splenocyte as an index. The spleen of normal BALB/c mouse (female, 5-week-old, N=3) was triturated using a syringe barrel and a cell strainer and washed with and suspended in HBSS (−). Erythrocytes were then removed using ACK Buffer (Thermo fisher scientific), and splenocytes were isolated. The splenocytes were prepared to 2.5×10^6 cells/mL with 10% FBS/1% penicillin/streptomycin/4 ng/mL rmIL-2-containing RPMI1640 medium (culture medium), and seeded in a 96 well plate at 100 μl/well. The antiserum (final concentration 15-fold) of the mice administered with each AJP001 conjugated peptide and rhIL-23 (final concentration 10 ng/ml) were added to the culture medium, reacted at 37° C. for 2 hr, added at 100 μL/well to a 96-well plate seeded with splenocytes, and cultured for 3 days in a 37° C./5% CO2 incubator. An untreated well and a control well to which normal mouse serum and rhIL-23 were added were provided. IL-17A/F in the culture supernatant was measured using Mouse IL-17A/F ELISA kit (R&D systems), the proportion (%) of IL-17 to normal serum was calculated from the IL-17 concentrations of untreated well (A), control well (B), and well (C) to which antiserum of the mice administered with each AJP001 conjugated peptide was added and according to the following formula, and the neutralization activity was evaluated.
AJP001 conjugated peptide (SEQ ID NO: 6) was dissolved in physiological saline and intradermally administered to BALB/c mice (female, 6-week-old, N=6) at 1 mg/body 3 times at two-week intervals, and blood was collected every 2 weeks until 8 weeks. The antibody titer (GMT) of all the collected sera and the binding ability to rhIL-23 of the serum at 6 weeks were measured by the ELISA method. In FIG. 5, “*” means P<0.05.

The next assay concerns BALB/c mice. As to the kind of experiment: rhIL-23-induced mouse auricle inflammation model. The conditions noted are these: 1 mg/body 3 times. The assay is classed as in vivo. On the procedure:
AJP001 conjugated peptide (SEQ ID NO: 6) was dissolved in physiological saline and administered to BALB/c mice (female, 6-week-old, N=8) at 1 mg/body 3 times at two-week intervals. At the time point of 6 weeks after the initial administration, rhIL-23 was administered intradermally to the ear to induce inflammation. rhIL-23 was administered every day and 4 times in total. As a control group, an rhIL-23 group without administration of AJP001 conjugated peptide was provided. Auricular thickness was measured using a thickness gauge at the time points of 3 days and 4 days after rhIL-23 administration. In addition, the mRNA expression of IL-17A, IL-22, IL-1β, LCN-2, and CXCL-2 in the auricle was measured. The results of efficacy evaluation of the AJP001 conjugated peptide (SEQ ID NO: 6) on auricular thickness and mRNA expression are shown in FIG. 6. In FIG. 6, “*” means that it is significant (P<0.05) compared with “rhIL-23”. “#” means that it is significant (P<0.05) compared with “Normal (normal group)”.

For a further assay, the system named is BALB/c mouse. As to the kind of experiment: TNBS-induced mouse colitis model. Format: in vivo. On the procedure:
AJP001 conjugated peptide (SEQ ID NO: 2) was dissolved in physiological saline, mixed with an equal amount of 1 mg/mL Type-B/K CpG-ODN K3 (GeneDesign, Inc., hereinafter sometimes to be referred to as “CpG”), and subcutaneously administered to BALB/c mouse (female, 6-week-old, N=10) at 1 mg/body 3 times at two-week intervals. At the time point of 6 weeks after the initial administration, TNBS dissolved in 30% ethanol was administered by intestinal infusion at 2 mg/body. With the first administration of TNBS as Day 0, TNBS was administered by intestinal infusion at 3 mg/body on Day 7 to induce colitis. A Normal group and a 30% EtOH group, each without administration of TNBS, a Saline/TNBS group with administration of TNBS but without administration of the peptide, and a CpG/INBS group with administration of only an adjuvant were provided. Body weight was measured on Days 1, 2, 3, 4, 7, 8, 9, and 10, including the day of TNBS administration. After euthanasia by cardiac blood collection under deep anesthesia on Day 10, the obtained serum was measured for the antibody titer (GMT) and binding to mIL-23 by the ELISA method (same method as in Example 1). In addition, large intestinal tissue was collected, the length (cm) of the large intestine was measured, a 2 cm region from the anus was subjected to the measurement of cytokine mRNA expression, and a 2 to 4 cm region was subjected to histopathological examination. As to the expression of cytokine mRNA, the region was bead disrupted under ice-cooling, total RNA was extracted using RNeasy Fibrous Tissue Kit (Qiagen), and then cDNA of the extracted RNA was prepared using High-Capacity cDNA Reverse Transcription Kit ([…]). Using TaqMan Gene Expression Assays (GAPDH: Mm99999915_g1; IL-17A: Mm00439618_m1; IL-17F:Mm00521423_m1; IL-22:Mm01226722_m1; IL-23:Mm00518984_m1; IL-1β:Mm00434228_m1), Ct value was measured using Applied Biosystems 7900HT Fast Real Time PCR System. The mRNA expression level was calculated by the ΔΔCt method and evaluated as a relative value to the normal group. For histopathological examination, the collected large intestine was fixed with 10% neutral formalin, and then a specimen was prepared according to a conventional method and stained with HE. The HE-stained specimen was observed under a microscope, scored for inflammatory cell infiltration (Grade: 0-3), depth of colorectal tissue damage (Grade: 0-3), and range of colorectal mucosal damage (Grade: 0-4), and the total score was calculated.

Where no end group is shown, it is not given here.

In the case of “SEQ ID NO 6: AJP001-Ahx-B cell epitope peptide conjugate; epitope SPSQPWQR (human 151-158) (not fully specified (N-terminus); listed as Homo sapiens)”, the “binding ability to rhIL-23” value in assay [1] was “confirmed”. The “mRNA expression of IL-17A, IL-22, IL-1β, LCN-2, and CXCL-2 in auricle” value in the assay with BALB/c mice (rhIL-23 to ear) is recorded as “suppressive action”. Besides, in the assay on BALB/c mice (rhIL-23 to ear daily 4 times from week 6, day 3 and 4), the “increase in auricular thickness” value is reported as “suppressive action”.

In the case of “SEQ ID NO 2: AJP001-Ahx-B cell epitope peptide conjugate; epitope SSSQQWQR (mouse 152-159) (not fully specified (N-terminus); listed as Mus musculus)”, in the assay on BALB/c mouse (1 mg/body with CpG 3 times, Day 10), the “shortened large intestine length” value was “suppressive action”. The “inflammatory changes in large intestine tissues” value in the assay on BALB/c mouse (1 mg/body with CpG 3 times, Day 10, HE) is “suppressive action”. In addition, the “mRNA expression of IL-17A, IL-22, and IL-1β in tissues” value in the assay with BALB/c mouse (1 mg/body with CpG 3 times, Day 10, large intestinal tissue) is given as “suppressive action”. Moreover, in the assay on BALB/c mouse (BALB/c mice, 1 mg/body subcutaneous with CpG-ODN K3, 3 times, TNBS Day 0 and Day 7, vs Saline/TNBS or CpG/TNBS), the body weight loss result is “suppressive action”.
